Experimental data from patent US20250304616A1, “NOVEL PEPT[…] AND DESIGN” (priority 2020, published 2025).
Like-named read-outs stand apart in the source and are kept apart here.

Tested on: recombinant rabies virus 1088 strain (1088/GLuc)
Experiment: microbe, parasite or virus in culture
Type: cell-based, rabies virus in Neuro-2a cells
Details: read-out: Anti-rabies activity

| SMILES | IC50 | IC50 (Lyssavirus rabies, N2a, 72 h) |
| --- | --- | --- |
| COc1ccc(CN2C[C@@H]3C[C@H]4C(=O)N[C@]3(C(=O)NCc3ccccc3)[C@@H]2[C@@H]4CC(C)C)cc1 (relative stereo) [IB-5, (3S, 3aS, 6R′, 7R*, 7aS*) —N-benzyl-7-isobutyl-1-(4-methoxybenzyl)-5-oxooctahydro-3@H-3,6-methanopyrrolo[3,2-b]pyridine-3a-carboxamide] | < 10 µM |  |
| COc1ccc(CN2C[C@H]3C[C@]4(C(=O)NCc5ccccc5)NC(=O)[C@H]3[C@H]2[C@H]4CC(C)C)cc1 (relative stereo) [IF-6, (3S*, 3aR*, 6S*, 7R*, 7aR*) —N-benzyl-7-isobutyl-1-(4-methoxybenzyl)-4-oxooctahydro-6H-3,6-methanopyrrolo[3,2-c]pyridine-6-carboxamide] |  | < 10 µM |
| CC(C)CC(=O)OCC1=CCN2C3CC(NC(=O)Cc4ccccc4)C1C2CN(Cc1ccccc1)C3 (stereo not shown) [12aab] |  | < 10 µM |
| COc1ccc(CN2CC3CC4(C(=O)NCc5ccccc5)NC(=O)C3C2C4CC(C)C)cc1F (stereo not shown) [IF-801] |  | < 10 µM |
